Among the data in ChEMBL document CHEMBL4814047, “Design, synthesis and biological activity of N-(amino)piperazine-containing benzothiazinones against Mycobacterium tuberculosis” (Eur J Med Chem, 2021) are selectivity ratio and MIC values, retold here.

In brackets after ≈: the same amount, converted by molar mass.

The nature of series [1]: Selectivity index, ratio of CC50 for African green monkey Vero cells to MIC for multidrug resistance Mycobacterium tuberculosis 16995 clinical isolate. The settings on record: read-out: Selectivity Index. Type of series: toxicity.
In series [2] the test system is Mycobacterium tuberculosis. In words: Antimycobacterial activity against multidrug resistance Mycobacterium tuberculosis 16995 clinical isolate incubated for 7 days by microplate alamar blue assay. The format is functional. The settings on record: Mycobacterium tuberculosis, 16995, 168 h; time 7 day. (Resazurin is reduced to fluorescent resorufin, in cell work by metabolically active cells.)

Series [3] relates to Mycobacterium tuberculosis. In words: Antimycobacterial activity against multidrug resistance Mycobacterium tuberculosis 16833 clinical isolate incubated for 7 days by microplate alamar blue assay. The format is functional. The settings on record: Mycobacterium tuberculosis, 16833, 168 h; time 7 day.

As for `O=c1nc(N2CCN(/N=C/c3ccc(OC(F)(F)F)cc3)CC2)sc2c([N+](=O)[O-])cc(C(F)(F)F)cc12`, the selectivity ratio in series [1] is more than 4000. For the same compound, the MIC in series [2] and in series [3] was less than 0.016 µg/mL each time.

Take `CC(NN1CCN(c2nc(=O)c3cc(C(F)(F)F)cc([N+](=O)[O-])c3s2)CC1)c1ccc(OC(F)(F)F)cc1` (configuration not stated): in series [1], the selectivity ratio was more than 3620. The MIC (commonly the lowest concentration that inhibits growth of the organism) in series [2] is 0.0177 µg/mL (≈ 0.0314 µM); in series [3], 0.0196 µg/mL (≈ 0.0348 µM).

`O=c1nc(N2CCN(Nc3ccc(C(F)(F)F)cc3)CC2)sc2c([N+](=O)[O-])cc(C(F)(F)F)cc12`: the selectivity ratio in series [1] is more than 4000. In addition, the MIC in series [2] and in series [3] was less than 0.016 µg/mL each time.

As for `O=c1nc(N2CCN(NCc3ccc(Br)cc3)CC2)sc2c([N+](=O)[O-])cc(C(F)(F)F)cc12`, in series [1], the selectivity ratio is more than 4000. For the same compound, the MIC in series [2] and in series [3] was less than 0.016 µg/mL in each case.

Take `O=c1nc(N2CCN(NCc3ccc(F)cc3)CC2)sc2c([N+](=O)[O-])cc(C(F)(F)F)cc12`: in series [1], the selectivity ratio is more than 4000. Also, the MIC in series [2] and in series [3] was less than 0.016 µg/mL each time.

As for `COc1ccc(CNN2CCN(c3nc(=O)c4cc(C(F)(F)F)cc([N+](=O)[O-])c4s3)CC2)cc1`, the selectivity ratio in series [1] is more than 2360. The MIC in series [2] is 0.0271 µg/mL (≈ 0.0547 µM); in series [3], less than 0.016 µg/mL.

In the case of `CC(C)CN(CC(C)C)N1CCN(c2nc(=O)c3cc(C(F)(F)F)cc([N+](=O)[O-])c3s2)CC1`, the selectivity ratio in series [1] is more than 4000. Also, the MIC in series [2] and in series [3] was less than 0.016 µg/mL each time.

Consider `O=c1nc(N2CCN(NCc3ccc(OC(F)(F)F)cc3)CC2)sc2c([N+](=O)[O-])cc(C(F)(F)F)cc12`, for which the selectivity ratio in series [1] was more than 4000. Further, the MIC in series [2] and in series [3] was less than 0.016 µg/mL each time.

For the compound `O=c1nc(N2CCN(Nc3ccc(OC(F)(F)F)cc3)CC2)sc2c([N+](=O)[O-])cc(C(F)(F)F)cc12`, the selectivity ratio in series [1] was more than 4000. For the same compound, the MIC in series [2] and in series [3] was less than 0.016 µg/mL throughout.

For `O=c1nc(N2CCN(NCc3ccc(Cl)cc3)CC2)sc2c([N+](=O)[O-])cc(C(F)(F)F)cc12`, in series [1], the selectivity ratio was more than 4000. The MIC in series [2] and in series [3] was less than 0.016 µg/mL each time.

Consider `Cc1cccc(F)c1CNN1CCN(c2nc(=O)c3cc(C(F)(F)F)cc([N+](=O)[O-])c3s2)CC1`, for which the selectivity ratio in series [1] is more than 3930. For the same compound, the MIC in series [2] was found to be 0.0163 µg/mL (≈ 0.0328 µM); in series [3] it was 0.0152 µg/mL (≈ 0.0306 µM).

As to `CN(c1ccc(OC(F)(F)F)cc1)N1CCN(c2nc(=O)c3cc(C(F)(F)F)cc([N+](=O)[O-])c3s2)CC1`, the selectivity ratio in series [1] was more than 4000. In addition, the MIC in series [2] and in series [3] was less than 0.016 µg/mL each time.

Consider `O=c1nc(N2CCN(NC3CCCCC3)CC2)sc2c([N+](=O)[O-])cc(C(F)(F)F)cc12`, for which, in series [1], the selectivity ratio was more than 4000. For the same compound, the MIC in series [2] and in series [3] was less than 0.016 µg/mL each time.

In the case of `CON=C1CCC(N(C)N2CCN(c3nc(=O)c4cc(C(F)(F)F)cc([N+](=O)[O-])c4s3)CC2)CC1` (configuration not stated), the selectivity ratio in series [1] is more than 4000. Besides, the MIC in series [2] and in series [3] was less than 0.016 µg/mL each time.

In the case of `Cc1ccc(CNN2CCN(c3nc(=O)c4cc(C(F)(F)F)cc([N+](=O)[O-])c4s3)CC2)cc1`, in series [1], the selectivity ratio was more than 4000. Further, the MIC in series [2] and in series [3] was less than 0.016 µg/mL in each case.

For `CN(CC1CCCCC1)N1CCN(c2nc(=O)c3cc(C(F)(F)F)cc([N+](=O)[O-])c3s2)CC1`, the selectivity ratio in series [1] was more than 4000. For the same compound, the MIC in series [2] and in series [3] was less than 0.016 µg/mL each time.

Take `O=c1nc(N2CCN(NCC3CCCC3)CC2)sc2c([N+](=O)[O-])cc(C(F)(F)F)cc12`: the selectivity ratio in series [1] is more than 4000. The MIC in series [2] and in series [3] was less than 0.016 µg/mL throughout.

`O=c1nc(N2CCN(NCc3cccc(C(F)(F)F)c3)CC2)sc2c([N+](=O)[O-])cc(C(F)(F)F)cc12`: the selectivity ratio in series [1] was more than 4000. For the same compound, the MIC in series [2] and in series [3] was less than 0.016 µg/mL in each case.

`CC(c1ccc(OC(F)(F)F)cc1)N(C)N1CCN(c2nc(=O)c3cc(C(F)(F)F)cc([N+](=O)[O-])c3s2)CC1` (configuration not stated): the selectivity ratio in series [1] was more than 4000. Besides, the MIC in series [2] and in series [3] was less than 0.016 µg/mL each time.

Turning to `O=c1nc(N2CCN(NCC3CCCCC3)CC2)sc2c([N+](=O)[O-])cc(C(F)(F)F)cc12`, the selectivity ratio in series [1] is more than 1830. Also, the MIC in series [2] and in series [3] was less than 0.016 µg/mL in each case.

As for `C/C(=N\N1CCN(c2nc(=O)c3cc(C(F)(F)F)cc([N+](=O)[O-])c3s2)CC1)c1ccc(OC(F)(F)F)cc1`, the selectivity ratio in series [1] was more than 4000. The MIC in series [2] and in series [3] was less than 0.016 µg/mL in each case.

For the compound `O=c1nc(N2CCN(NCc3ccc(C(F)(F)F)cc3)CC2)sc2c([N+](=O)[O-])cc(C(F)(F)F)cc12`, in series [1], the selectivity ratio is more than 4000. In addition, the MIC in series [2] and in series [3] was less than 0.016 µg/mL throughout.

For the compound `O=c1nc(N2CCN(NCc3cc(F)cc(F)c3)CC2)sc2c([N+](=O)[O-])cc(C(F)(F)F)cc12`, in series [1], the selectivity ratio is more than 4000. For the same compound, the MIC in series [2] and in series [3] was less than 0.016 µg/mL throughout.

In the case of `O=c1nc(N2CCN(NCCC3CCCCC3)CC2)sc2c([N+](=O)[O-])cc(C(F)(F)F)cc12`, the selectivity ratio in series [1] is more than 2180. Besides, the MIC worked out at 0.0294 µg/mL (≈ 0.0606 µM) in series [2] and 0.0357 µg/mL (≈ 0.0735 µM) in series [3].

For the compound `CC(C)(C)c1ccc(CNN2CCN(c3nc(=O)c4cc(C(F)(F)F)cc([N+](=O)[O-])c4s3)CC2)cc1`, the selectivity ratio in series [1] was more than 4000. For the same compound, the MIC in series [2] and in series [3] was less than 0.016 µg/mL in each case.

As for `NNC(=O)c1ccncc1` [ISONIAZID], the minimal inhibitory concentration (MIC) in series [2] and in series [3] was more than 10 µg/mL throughout.

For the compound `O=c1nc(N2CCN(CC3CCCCC3)CC2)sc2c([N+](=O)[O-])cc(C(F)(F)F)cc12` [MACOZINONE], the selectivity ratio in series [1] is more than 4000. The MIC in series [2] and in series [3] was less than 0.016 µg/mL each time.

Consider `CO[C@H]1/C=C/O[C@@]2(C)Oc3c(C)c(O)c4c(O)c(c(/C=N/N5CCN(C)CC5)c(O)c4c3C2=O)NC(=O)/C(C)=C\C=C\[C@H](C)[C@H](O)[C@@H](C)[C@@H](O)[C@@H](C)[C@H](OC(C)=O)[C@@H]1C` [RIFAMPIN], for which the MIC in series [2] and in series [3] was more than 10 µg/mL each time.
